Results: ChEMBL document CHEMBL3885881, “DrugMatrix”

Organism: Rattus norvegicus
Experiment: DrugMatrix - Regimen: Daily Repeat
Assay type: toxicity, organism-based, Sprague-Dawley
Parameters: regimen Daily Repeat, gender Male, age 6-8 weeks
Settings: in vivo, po, 5 mg/kg, route oral GAVAGE, dose level Low, vehicle .5 % CMC; for ABSOLUTE BASOPHIL / ABSOLUTE EOSINOPHIL / ABSOLUTE LYMPHOCYTE / ABSOLUTE MONOCYTE / ABSOLUTE SEGMENTED NEUTROPHIL / BASOPHIL / EOSINOPHIL / ERYTHROCYTE COUNT / HEMATOCRIT / HEMOGLOBIN / LEUKOCYTE COUNT / LYMPHOCYTE / MEAN CORPUSCULAR HEMOGLOBIN / MEAN CORPUSCULAR HEMOGLOBIN CONCENTRATION / MEAN CORPUSCULAR VOLUME / MONOCYTE / NEUTROPHIL / NUCLEATED RED BLOOD CELLS / PLATELET COUNT: tissue Blood; for ALANINE AMINOTRANSFERASE / ALBUMIN / ALKALINE PHOSPHATASE / ASPARTATE AMINOTRANSFERASE / BLOOD UREA NITROGEN / CARBON DIOXIDE / CHLORIDE / CHOLESTEROL / CREATINE PHOSPHOKINASE / CREATININE / GLUCOSE / LACTATE DEHYDROGENASE / LIPASE / PHOSPHORUS / POTASSIUM / SODIUM / TOTAL BILIRUBIN / TOTAL PROTEIN / URIC ACID: tissue Plasma

COc1cc(CNC(=O)CCCC/C=C/C(C)C)ccc1O [CAPSAICIN]
ABSOLUTE BASOPHIL (72 h, time 3 day): 0 CELLS/uL
ABSOLUTE EOSINOPHIL (72 h, time 3 day): 231.67 CELLS/uL
ABSOLUTE LYMPHOCYTE (72 h, time 3 day): 12823.67 CELLS/uL
ABSOLUTE MONOCYTE (72 h, time 3 day): 176.33 CELLS/uL
ABSOLUTE SEGMENTED NEUTROPHIL (72 h, time 3 day): 735 CELLS/uL
BASOPHIL (72 h, time 3 day): 0%
EOSINOPHIL (72 h, time 3 day): 1.33%
ERYTHROCYTE COUNT (72 h, time 3 day): 5.55 x10E6/uL
HEMATOCRIT (72 h, time 3 day): 34.43%
HEMOGLOBIN (72 h, time 3 day): 12.97 G/DL
LEUKOCYTE COUNT (72 h, time 3 day): 13.97 x10E3/uL
LYMPHOCYTE (72 h, time 3 day): 92%
MEAN CORPUSCULAR HEMOGLOBIN (72 h, time 3 day): 23.37 pg
MEAN CORPUSCULAR HEMOGLOBIN CONCENTRATION (72 h, time 3 day): 37.63 G/DL
MEAN CORPUSCULAR VOLUME (72 h, time 3 day): 62.03 fL
MONOCYTE (72 h, time 3 day): 1.33%
NEUTROPHIL (72 h, time 3 day): 5.33%
NUCLEATED RED BLOOD CELLS (72 h, time 3 day): 0 /100WBC
PLATELET COUNT (72 h, time 3 day): 1334 x10E3/uL
ALANINE AMINOTRANSFERASE (72 h, time 3 day): 40.33 u/L
ALBUMIN (72 h, time 3 day): 4.27 G/DL
ALKALINE PHOSPHATASE (72 h, time 3 day): 433 u/L
ASPARTATE AMINOTRANSFERASE (72 h, time 3 day): 75.33 u/L
BLOOD UREA NITROGEN (72 h, time 3 day): 15 mg/dL
CARBON DIOXIDE (72 h, time 3 day): 25.33 mmol/L
CHLORIDE (72 h, time 3 day): 104.67 MEQ/L
CHOLESTEROL (72 h, time 3 day): 57 mg/dL
CREATINE PHOSPHOKINASE (72 h, time 3 day): 554.67 u/L
CREATININE (72 h, time 3 day): 0.17 mg/dL
GLUCOSE (72 h, time 3 day): 177.67 mg/dL
LACTATE DEHYDROGENASE (72 h, time 3 day): 121 u/L
LIPASE (72 h, time 3 day): 8 u/L
PHOSPHORUS (72 h, time 3 day): 12.47 mg/dL
POTASSIUM (72 h, time 3 day): 6.02 MEQ/L
SODIUM (72 h, time 3 day): 145.37 MEQ/L
TOTAL BILIRUBIN (72 h, time 3 day): 0.23 mg/dL
TOTAL PROTEIN (72 h, time 3 day): 5.9 G/DL
URIC ACID (72 h, time 3 day): 1.5 mg/dL
ABSOLUTE BASOPHIL (120 h, time 5 day): 0 CELLS/uL
ABSOLUTE EOSINOPHIL (120 h, time 5 day): 118.67 CELLS/uL
ABSOLUTE LYMPHOCYTE (120 h, time 5 day): 14371.67 CELLS/uL
ABSOLUTE MONOCYTE (120 h, time 5 day): 374.33 CELLS/uL
ABSOLUTE SEGMENTED NEUTROPHIL (120 h, time 5 day): 1135.33 CELLS/uL
BASOPHIL (120 h, time 5 day): 0%
EOSINOPHIL (120 h, time 5 day): 0.67%
ERYTHROCYTE COUNT (120 h, time 5 day): 5.31 x10E6/uL
HEMATOCRIT (120 h, time 5 day): 33.03%
HEMOGLOBIN (120 h, time 5 day): 12.53 G/DL
LEUKOCYTE COUNT (120 h, time 5 day): 16 x10E3/uL
LYMPHOCYTE (120 h, time 5 day): 89.67%
MEAN CORPUSCULAR HEMOGLOBIN (120 h, time 5 day): 23.6 pg
MEAN CORPUSCULAR HEMOGLOBIN CONCENTRATION (120 h, time 5 day): 37.93 G/DL
MEAN CORPUSCULAR VOLUME (120 h, time 5 day): 62.17 fL
MONOCYTE (120 h, time 5 day): 2.33%
NEUTROPHIL (120 h, time 5 day): 7.33%
NUCLEATED RED BLOOD CELLS (120 h, time 5 day): 0 /100WBC
PLATELET COUNT (120 h, time 5 day): 1256.67 x10E3/uL
ALANINE AMINOTRANSFERASE (120 h, time 5 day): 50 u/L
ALBUMIN (120 h, time 5 day): 4.1 G/DL
ALKALINE PHOSPHATASE (120 h, time 5 day): 314 u/L
ASPARTATE AMINOTRANSFERASE (120 h, time 5 day): 93.67 u/L
BLOOD UREA NITROGEN (120 h, time 5 day): 18.33 mg/dL
CARBON DIOXIDE (120 h, time 5 day): 24.33 mmol/L
CHLORIDE (120 h, time 5 day): 107.67 MEQ/L
CHOLESTEROL (120 h, time 5 day): 68 mg/dL
CREATINE PHOSPHOKINASE (120 h, time 5 day): 629.33 u/L
CREATININE (120 h, time 5 day): 0.21 mg/dL
GLUCOSE (120 h, time 5 day): 153 mg/dL
LACTATE DEHYDROGENASE (120 h, time 5 day): 471.33 u/L
LIPASE (120 h, time 5 day): 8.33 u/L
PHOSPHORUS (120 h, time 5 day): 12.63 mg/dL
POTASSIUM (120 h, time 5 day): 5.84 MEQ/L
SODIUM (120 h, time 5 day): 145.1 MEQ/L
TOTAL BILIRUBIN (120 h, time 5 day): 0.2 mg/dL
TOTAL PROTEIN (120 h, time 5 day): 6.2 G/DL
URIC ACID (120 h, time 5 day): 1.73 mg/dL
